Laboratory results published in paper PMC11446282.
No end group written: not given here.

Columns and labels:
PP2A-B55α = experiment: Affinity purification of YFP-tagged designed peptides from HeLa cells, binding to PP2A-B55α by Western blot; design: species or system human; details: experimental binding of YFP-tagged designed peptide to PP2A-B55α
B55α interactors = experiment: MS analysis of B55α WT, V228A, I284A, S287A and D340A immunopurifications; type: binding, human; details: log2 ratio of interactor abundance, 4 replicates each, normalised to bait B55α; for log2_ratio_D340_WT: B55α D340A vs WT immunopurification; for log2_ratio I284_WT: B55α I284A vs WT immunopurification; for log2_ratio S287_WT: B55α S287A vs WT immunopurification; for log2_ratio V228_WT: B55α V228A vs WT immunopurification
Experimental: Standard cloning techniques were used throughout. Point mutations were introduced by whole plasmid polymerase chain reaction (PCR). All constructs were fully sequenced. Synthetic DNA was purchased from GeneArt, Life Technologies and cloned into pcDNA5/FRT/TO (Invitrogen) expression vector containing YFP, resulting in the indicated YFP fusion proteins. These constructs were transiently transfected into HeLa cells 24 hours before harvesting cells. Cells were lysed in lysis buffer [50 mM tris-HCl (pH 7.5), 50 mM NaCl, 1 mM EDTA, 1 mM […], and 0.1% NP-40]. Complexes were immunoprecipitated at 4°C in lysis buffer with green fluorescent protein (GFP)–Trap (ChromoTek) and washed in lysis buffer. Precipitated protein complexes were washed three times in lysis buffer, eluted in 2× SDS sample buffer, and subjected to Western blotting or MS as indicated.
Pull-downs were analyzed on a Q-Exactive Plus quadrupole or Fusion Orbitrap Lumos mass spectrometer (Thermo Fisher Scientific) equipped with Easy-nLC 1000 or […] (Thermo Fisher Scientific) and nanospray source (Thermo Fisher Scientific).
Static modifications included carbamidomethylcysteine, and variable modifications included oxidized methionine and STY phosphorylation. Searches were filtered using orthogonal measures including mass measurement accuracy (±3 parts per million), Xcorr for charges from +2 to +4, and dCn targeting a <1% false discovery rate at the peptide level. Quantification of LC-MS/MS spectra was performed using MassChroQ ([57]) and the iBAQ method ([58]). All data were analyzed using R 4.3.0. Missing values were imputed from a normal distribution. […] In each dataset, the abundance of the protein of interest was normalized to be equal across all samples. Statistical analyses were done using a two-tailed Student’s t test.

B55α = biological target: T1, B55α (Homo sapiens, UniProt P63151); experiment: Surface plasmon resonance with captured Twin-Strep B55α; type: binding; details: same SPR approach as for B55i; fig. S15
T1 construct: His; made in house; host or cells: HEK293 cells
T1 sequence (P63151 1-447): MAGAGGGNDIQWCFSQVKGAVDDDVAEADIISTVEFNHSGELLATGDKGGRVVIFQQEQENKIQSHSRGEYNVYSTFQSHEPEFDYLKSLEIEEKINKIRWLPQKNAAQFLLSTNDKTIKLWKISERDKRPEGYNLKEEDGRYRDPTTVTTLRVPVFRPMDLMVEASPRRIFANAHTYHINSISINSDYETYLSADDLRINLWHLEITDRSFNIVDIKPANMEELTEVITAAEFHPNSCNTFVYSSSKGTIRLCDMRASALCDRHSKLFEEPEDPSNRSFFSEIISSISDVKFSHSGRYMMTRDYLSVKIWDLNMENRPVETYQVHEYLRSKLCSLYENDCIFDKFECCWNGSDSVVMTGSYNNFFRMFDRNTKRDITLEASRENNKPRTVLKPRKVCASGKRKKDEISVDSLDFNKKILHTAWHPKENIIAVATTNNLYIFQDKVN

binding to B55α, affinity range (B55α)	Substance	binding to PP2A-B55α (Western blot) (PP2A-B55α)	log2_ratio_D340_WT (B55α interactors)	log2_ratio I284_WT (B55α interactors)	log2_ratio S287_WT (B55α interactors)	log2_ratio V228_WT (B55α interactors)
–	EKRKKLKEKALEKLKDPNRDLEEKVLLRNWLKSL	14	–	–	–	–
–	HS90A_HUMAN	–	-0.17	-0.24	0.22	-0.28
–	LLELAKKKYEEELKKKEPDLTKLVLLKNVIKKLK	42	–	–	–	–
–	EKILEIAKKKIEELKKKPGGLDLEKYLLYKKLIEKV	15	–	–	–	–
low micromolar	QIIQRSFSSPENFQRQAVMNSALRQMSYGGW [RBM7 129–158 WT]	–	–	–	–	–
–	QRLMTLSVWKMYHSRMQRGGEDAWLSLMLSLAMRLG	0	–	–	–	–
–	HAX1_HUMAN	–	-0.10	-0.26	0.0269	-0.50
–	ELPLEEVERLLKLAEEKLKDESLSLTKKVLLRNL	55.5	–	–	–	–
–	HSPB1_HUMAN	–	-1.28	-0.92	-0.85	-0.80
–	ELIKRLYEKAKEKLKDESRSLEKKVLLRNWIKSL	62.5	–	–	–	–
–	RLPINLERALYRLSHLKLSNSKRELYEQVALKLAMLGFLNLVNHT	11.5	–	–	–	–
–	PVKLQLLKKAKEKLADENLSLEKKVLLKNLIKSW	68	–	–	–	–
–	EEKLRILEKMEEKLKDKSLSLEKKVLLKNAKKSL	28	–	–	–	–
–	MQPINKARALYRISHLKLSNSKREQDEQVLLRLHMIAFLNIVNHT	0	–	–	–	–
–	DNJA2_HUMAN	–	1.00	0.64	1.02	0.87
–	HS90B_HUMAN	–	-0.13	-0.16	0.29	-0.12
–	SLIWQSNMDKALVKLQLCHMLEQPDLTKSVMILAGVLAAQEFM	0	–	–	–	–
–	BAG3_HUMAN	–	0.51	0.79	1.17	0.37
–	DNJB6_HUMAN	–	-0.39	0.42	1.10	2.13
